According to PubChem BioAssay (NCI):
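Values below derive from 48-hour exposures of cells grown in 96-well plates, with endpoints linearly interpolated between the two concentrations bracketing the appropriate inhibition level. TGI marks complete inhibition of growth.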

Columns and labels:
Test in all cases: NCI anticancer screen, dose series, 48 h
786-0 renal = test system: 786-0 renal
ACHN renal = test system: ACHN renal
CAKI-1 renal = test system: CAKI-1 renal
COLO 205 colon = test system: COLO 205 colon
HOP-92 NSCLC = test system: HOP-92 NSCLC
HT29 colon = test system: HT29 colon
IGROV1 ovarian = test system: IGROV1 ovarian
K-562 leukemia = test system: K-562 leukemia
NCI-H23 lung = test system: NCI-H23 lung
NCI/ADR-RES ovarian = test system: NCI/ADR-RES ovarian
OVCAR-3 ovarian = test system: OVCAR-3 ovarian
OVCAR-5 ovarian = test system: OVCAR-5 ovarian
OVCAR-8 ovarian = test system: OVCAR-8 ovarian
RXF 393 renal = test system: RXF 393 renal
SF-539 CNS = test system: SF-539 CNS
SK-MEL-28 melanoma = test system: SK-MEL-28 melanoma
SNB-19 CNS = test system: SNB-19 CNS
SNB-75 CNS = test system: SNB-75 CNS
TK-10 renal = test system: TK-10 renal
UACC-62 melanoma = test system: UACC-62 melanoma

| SMILES | TGI (786-0 renal) [µM] | TGI (ACHN renal) [µM] | TGI (CAKI-1 renal) [µM] | TGI (COLO 205 colon) [µM] | TGI (HOP-92 NSCLC) [µM] | TGI (HT29 colon) [µM] | TGI (IGROV1 ovarian) [µM] | TGI (K-562 leukemia) [µM] | TGI (NCI-H23 lung) [µM] | TGI (NCI/ADR-RES ovarian) [µM] | TGI (OVCAR-3 ovarian) [µM] | TGI (OVCAR-5 ovarian) [µM] | TGI (OVCAR-8 ovarian) [µM] | TGI (RXF 393 renal) [µM] | TGI (SF-539 CNS) [µM] | TGI (SK-MEL-28 melanoma) [µM] | TGI (SNB-19 CNS) [µM] | TGI (SNB-75 CNS) [µM] | TGI (TK-10 renal) [µM] | TGI (UACC-62 melanoma) [µM] |
| --- | --- | --- | --- | --- | --- | --- | --- | --- | --- | --- | --- | --- | --- | --- | --- | --- | --- | --- | --- | --- |
| Cc1ccc([C@@H]2[C@@H](C(=O)c3ccccn3)[C@H](c3ccc(C)cc3)C[C@](O)(c3ccccn3)[C@H]2C(=O)c2ccccn2)cc1 | 9.15 | > 40.4 | > 100 | > 100 | > 100 | > 100 | > 100 | > 100 | > 100 | > 100 | > 64.4 | > 85.8 | > 100 | > 100 | > 100 | > 100 | > 64.3 | > 100 | > 100 | 35.2 |
| COCOC1/C=C/CCCCC2=C(C)C=C(C1)O2 (stereo not given) | > 100 | > 100 | > 100 | > 100 | > 100 | > 100 | > 100 | > 100 | > 100 | > 100 | > 100 | > 100 | > 100 | > 100 | > 100 | > 100 | > 100 | > 100 | > 100 | > 100 |
| COc1cccc2c(N)c3cccc(C(=O)NCCN(C)C)c3nc12 | 1.82 | 2.03 | 2.21 | 0.592 | 1.3 | 0.633 | 1.65 | 0.383 | 1.02 | 12.4 | 1.7 | 3.4 | 0.594 | 0.88 | 0.758 | 3.17 | 1.44 | 0.362 | 6.14 | 0.78 |
| NCC1CCN(c2nc3ccccc3c3c2CCCC3)CC1 | 12.3 | 25.3 | 21.4 | 3.13 | 24.1 | 6.22 | 24.5 | 8.07 | 30.1 | 32.3 | 24.9 | 24.7 | 42.9 | 11.7 | 11.3 | 12 | 24.3 | 22.2 | 25.9 | 4.96 |
| CC(C)Sc1nc(C#N)cc2c1CCCC2 | > 100 | > 100 | > 100 | 50.1 | 93.5 | > 100 | > 100 | > 100 | > 100 | > 100 | > 100 | > 100 | > 100 | 87.9 | > 100 | > 100 | > 100 | > 100 | > 100 | > 100 |
| COc1cc(-c2cc(=O)c3cc4c(cc3[nH]2)OCO4)cc(OC)c1O | > 10 | > 10 | > 10 | > 10 | > 10 | > 10 | > 10 | > 10 | > 10 | > 10 | > 10 | > 10 | > 10 | > 10 | > 10 | > 10 | > 10 | > 10 | > 10 | > 10 |
| C[C@@]12[C@H]3CC[C@@H]1[C@H](O)C(=O)N2CC3 | > 100 | > 100 | > 100 | > 100 | > 100 | > 100 | > 100 | > 100 | > 100 | > 100 | > 100 | > 100 | > 100 | > 100 | > 100 | > 100 | > 100 | > 100 | > 100 | > 100 |
| COc1cccc(-c2cc(=O)c3ccccc3o2)c1N | > 100 | > 100 | > 100 | > 100 | > 100 | > 100 | > 100 | > 100 | > 100 | > 100 | > 100 | > 100 | > 100 | > 100 | > 100 | > 100 | > 100 | > 100 | > 100 | > 100 |
